Assay results published in patent publication US11304944B2, “MetAP2 inhibitors and methods of treating obesity” (SynDevRx, Inc., priority 2013, dated 2022).

Columns and labels:
[1] = system: DIO Levin rats; experiment: In vivo testing DIO Levin rats: weight changes, food consumption, insulin, leptin levels; conditions: for Final BW: after 68 days, 60% fat diet
Experimental: CKD-732 as referred to herein is the hemitartrate salt of the following structure:
Test articles were administered subcutaneously on an every 4 day (q4d) schedule in a diet-induced obesity (DIO) Levin-DS rat model. […] A dietary intervention (Standard Chow, Labdiet 5001; 3.4 kcal/g) was included to compare to the drug interventions. Upon arrival at three weeks of age, the male rats received ad libitum pellets of Harlan Diet TD.06414, 60% of calories from fat, 21% of calories from carbohydrate; 5.1 kcal/g. Prior to dosing the rats were randomized into groups of three animals with an average body weight of 595 gm. […] Compound 1 in the form of the hemitartrate and CKD-732 in the form of the hemitartrate were dissolved in ethanol prior to dilution with vehicle. All doses were administered at a volume of 5.0 ml/kg. […] On day 1, first dose, the rats were 14 weeks of age. Also on day 1, Group 2 was switched from the high fat diet to a standard chow diet; the remaining groups were maintained on a high fat diet for the duration of the study.
Animals were weighed every other day. Food consumption was measured weekly. On an approximately weekly basis throughout the study, blood samples were taken for assessment of serum chemistries including glucose and insulin. On Day 48 all rats underwent a 4 hour fasted Oral Glucose Tolerance Test (OGTT). Animals were dosed orally (per os, PO) at 8 mL/kg 25% glucose (2 g/kg). On day 68, gross pathology was performed to determine body composition.

[2] = system: DIO C57Bl6 mice; experiment: Efficacy of various compounds in DIO mouse model (body weight versus time); assay type: in vivo; conditions: for BW change vs. vehicle: day 26
Experimental: On study day 1 animals were randomized into groups so that the average weight of the mice in each group was 47 g. The mice were treated with either phosphate buffered saline (vehicle), or compounds as listed in Table 19 dissolved in vehicle (dorsal, subcutaneous administration).

[3] = 0.6 mg/kd (so in the source) q4d sc

Question: Which results are given for “poly[HPMA-co-MA-GFLG-N-(trans-4-aminocyclohexyl)carbamoylfumagillol] [Compound 16]”?
Answer: Avg. Insulin Day 7 ([1]; 0.3 mg/kg q4d sc): 2.27 ng/mL; Avg. Insulin Day 15 ([1]; 0.3 mg/kg q4d sc): 1.65 ng/mL; Avg. Insulin Day 23 ([1]; 0.3 mg/kg q4d sc): 1.66 ng/mL; Avg. Insulin Day 48 ([1]; 0.3 mg/kg q4d sc): 1.70 ng/mL; Avg. Insulin Pre-dosing ([1]; 0.3 mg/kg q4d sc): 1.76 ng/mL; Group Average Food Consumption Day 1-8 ([1]; 0.3 mg/kg q4d sc): 125.2 g; Group Average Food Consumption Day 9-15 ([1]; 0.3 mg/kg q4d sc): 125.9 g; Group Average Food Consumption Day 16-23 ([1]; 0.3 mg/kg q4d sc): 128.2 g; Group Average Food Consumption Day 24-30 ([1]; 0.3 mg/kg q4d sc): 129.3 g; Group Average Food Consumption Day 31-36 ([1]; 0.3 mg/kg q4d sc): 122.4 g; Group Average Food Consumption Day 37-43 ([1]; 0.3 mg/kg q4d sc): 131.9 g; Group Average Food Consumption Day 44-50 ([1]; 0.3 mg/kg q4d sc): 135.6 g; Group Average Food Consumption Day 51-57 ([1]; 0.3 mg/kg q4d sc): 134.5 g; Group Average Food Consumption Day 58-63 ([1]; 0.3 mg/kg q4d sc): 134.2 g; Group Average Food Consumption Day 63-68 ([1]; 0.3 mg/kg q4d sc): 57.6 g; Leptin Levels Day 29 ([1]; 0.3 mg/kg q4d sc): 3.30; Leptin Levels Pre-dose ([1]; 0.3 mg/kg q4d sc): 2.53; Leptin Levels, Day 29, % Change from Baseline ([1]; 0.3 mg/kg q4d sc): 30.3%; Final BW ([1]; 0.3 mg/kg q4d sc): 727.3 g; Avg. Insulin Day 7 [1, 3]: 2.09 ng/mL; Avg. Insulin Day 15 [1, 3]: 1.38 ng/mL; Avg. Insulin Day 23 [1, 3]: 1.72 ng/mL; Avg. Insulin Day 48 [1, 3]: 1.91 ng/mL; Avg. Insulin Pre-dosing [1, 3]: 2.95 ng/mL; Group Average Food Consumption Day 1-8 [1, 3]: 121.2 g; Group Average Food Consumption Day 9-15 [1, 3]: 101.0 g; Group Average Food Consumption Day 16-23 [1, 3]: 109.7 g; Group Average Food Consumption Day 24-30 [1, 3]: 122.1 g; Group Average Food Consumption Day 31-36 [1, 3]: 125.8 g; Group Average Food Consumption Day 37-43 [1, 3]: 116.6 g; Group Average Food Consumption Day 44-50 [1, 3]: 118.2 g; Group Average Food Consumption Day 51-57 [1, 3]: 123.1 g; Group Average Food Consumption Day 58-63 [1, 3]: 130.7 g; Group Average Food Consumption Day 63-68 [1, 3]: 45.9 g; Leptin Levels Day 29 ([1]; 1 mg/kg q4d sc): 4.53; Leptin Levels Pre-dose ([1]; 1 mg/kg q4d sc): 4.67; Leptin Levels, Day 29, % Change from Baseline ([1]; 1 mg/kg q4d sc): −2.9%; Final BW ([1]; 1.0 mg/kg q4d sc): 668.6 g; lower body weight than rats on the standard chow diet ([1]; 3 mg/kg Q4D, end of the study): 6.2%; lower body weight than the vehicle control ([1]; 3 mg/kg Q4D, end of the study): 22.1%; Avg. Insulin Day 7 ([1]; 3 mg/kg q4d sc): 0.66 ng/mL; Avg. Insulin Day 15 ([1]; 3 mg/kg q4d sc): 0.54 ng/mL; Avg. Insulin Day 23 ([1]; 3 mg/kg q4d sc): 1.26 ng/mL; Avg. Insulin Day 48 ([1]; 3 mg/kg q4d sc): 1.08 ng/mL; Avg. Insulin Pre-dosing ([1]; 3 mg/kg q4d sc): 1.49 ng/mL; Group Average Food Consumption Day 1-8 ([1]; 3 mg/kg q4d sc): 97.3 g; Group Average Food Consumption Day 9-15 ([1]; 3 mg/kg q4d sc): 63.2 g; Group Average Food Consumption Day 16-23 ([1]; 3 mg/kg q4d sc): 123.4 g; Group Average Food Consumption Day 24-30 ([1]; 3 mg/kg q4d sc): 108.7 g; Group Average Food Consumption Day 31-36 ([1]; 3 mg/kg q4d sc): 102.6 g; Group Average Food Consumption Day 37-43 ([1]; 3 mg/kg q4d sc): 105.5 g; Group Average Food Consumption Day 44-50 ([1]; 3 mg/kg q4d sc): 129.9 g; Group Average Food Consumption Day 51-57 ([1]; 3 mg/kg q4d sc): 115.2 g; Group Average Food Consumption Day 58-63 ([1]; 3 mg/kg q4d sc): 128.0 g; Group Average Food Consumption Day 63-68 ([1]; 3 mg/kg q4d sc): 43.3 g; Leptin Levels Day 29 ([1]; 3 mg/kg q4d sc): 1.36; Leptin Levels Pre-dose ([1]; 3 mg/kg q4d sc): 2.47; Leptin Levels, Day 29, % Change from Baseline ([1]; 3 mg/kg q4d sc): −45.0%; Final BW ([1]; 3.0 mg/kg q4d sc): 604.7 g; Avg. Insulin Day 7 ([1]; 6 mg, q7d sc): 1.96 ng/mL; Avg. Insulin Day 15 ([1]; 6 mg, q7d sc): 1.00 ng/mL; Avg. Insulin Day 23 ([1]; 6 mg, q7d sc): 1.11 ng/mL; Avg. Insulin Day 48 ([1]; 6 mg, q7d sc): 1.32 ng/mL; Avg. Insulin Pre-dosing ([1]; 6 mg, q7d sc): 3.06 ng/mL; Group Average Food Consumption Day 1-8 ([1]; 6 mg, q7d sc): 105.2 g; Group Average Food Consumption Day 9-15 ([1]; 6 mg, q7d sc): 48.3 g; Group Average Food Consumption Day 16-23 ([1]; 6 mg, q7d sc): 43.9 g; Group Average Food Consumption Day 24-30 ([1]; 6 mg, q7d sc): 139.8 g; Group Average Food Consumption Day 31-36 ([1]; 6 mg, q7d sc): 117.4 g; Group Average Food Consumption Day 37-43 ([1]; 6 mg, q7d sc): 126.3 g; Group Average Food Consumption Day 44-50 ([1]; 6 mg, q7d sc): 81.2 g; Group Average Food Consumption Day 51-57 ([1]; 6 mg, q7d sc): 107.5 g; Group Average Food Consumption Day 58-63 ([1]; 6 mg, q7d sc): 107.7 g; Group Average Food Consumption Day 63-68 ([1]; 6 mg, q7d sc): 19.8 g; Leptin Levels Day 29 ([1]; 6 mg, q7d sc): 2.00; Leptin Levels Pre-dose ([1]; 6 mg, q7d sc): 3.93; Leptin Levels, Day 29, % Change from Baseline ([1]; 6 mg, q7d sc): −49.2%; Final BW ([1]; 6.0 mg/kg q7d sc): 596.7 g; change in leptin levels from baseline versus dose ([1]; FIG. 18): dose-dependent response; weight loss versus fumagillol exposure, compared to Compound 1 or CKD-732 ([1]; day 68, FIG. 12): greater weight loss with significantly lower fumagillol exposure; Group Avg. BW, Study Day 1 ([2]; 2 mg/kg q4d sc): 47.0 g; Group Avg. BW, Study Day 7 ([2]; 2 mg/kg q4d sc): 43.4 g; Group Avg. BW, Study Day 15 ([2]; 2 mg/kg q4d sc): 43.2 g; Group Avg. BW, Study Day 21 ([2]; 2 mg/kg q4d sc): 42.0 g; Group Avg. BW, Study Day 26 ([2]; 2 mg/kg q4d sc): 41.7 g; BW change vs. vehicle ([2]; 2 mg/kg q4d sc): −9.6%; Group Avg. BW, Study Day 1 ([2]; 12 mg/kg q8d sc): 47.0 g; Group Avg. BW, Study Day 7 ([2]; 12 mg/kg q8d sc): 41.3 g; Group Avg. BW, Study Day 15 ([2]; 12 mg/kg q8d sc): 38.3 g; Group Avg. BW, Study Day 21 ([2]; 12 mg/kg q8d sc): 36.2 g; Group Avg. BW, Study Day 26 ([2]; 12 mg/kg q8d sc): 38.0 g; BW change vs. vehicle ([2]; 12 mg/kg q8d sc): −17.5%
